Where two headings read alike, the source gives them in different places.
Legend:
diabetic (db/db) mice = conditions: for mean percent change in glucose (lowering): after four weeks
Experimental: The mice are obese, extremely hyperglycemic and also hyperinsulinemic.
Male db/db mice (8 weeks old) were obtained from Jackson Laboratories and were allowed to acclimate for 1 week before the experiment commenced. A sample of blood was collected from the tail after which plasma glucose was isolated by centrifigation and the glucose concentration was measured in the plasma enzymatically on the COBAS automated clinical_analyzer equipped with a glucose kit that utilized hexokinas to quantitate the amount of glucose in a sample (Roche Diagnostic Systems, kit #47382). Mice with the lowest plasma glucose values were removed from the study and the remaining mice were randomized according to their individual plasma glucose values into 3 treatment groups (n=12 per group), control untreated db/db mice, 100 mg/kg/d compound treated db/db mice and 300_mg/kg/d compound treated db/db mice.
Treatment with the compound was carried out for 4 weeks during which time blood glucose levels were measured weekly from the tail using the One Touch II blood glucose meter (Lifescan, Inc). The blood glucose values of mice in the compound treated groups was compared to the blood glucose values of mice from the control untreated group by an analysis of variance followed by Dunett's Comparison Test (one-tailed).

[1] = tested on: streptozotocin-induced diabetic rats; conditions: STZ diabetic rats, 10 mg/kg daily by gavage, listed as test compound
Experimental: Diabetes is induced in animals as follows: male Sprague-Dawley rats (150 g), supplied by Harlan Teklad (Madison, Wis.), are allowed to acclimate for 1 week and water is supplied ad libitum. […] STZ, 40 mg/kg, is prepared in 0.03 M citrate buffer, pH 4.5 and administered intraperitoneally after a 24-hr fast. Control animals receive citrate buffer.
Two hours after STZ injection, food is returned. Two days following STZ injection, blood glucose is measured and animals with <300 mg/dL are eliminated. Animals with blood glucose levels ≧300 mg/dL are randomized into diabetic control and treated groups.
In all, three groups of animals are monitored and compared. The groups comprise a (nondiabetic) control group (n=5); an untreated diabetic (control) group (n=7); and treated diabetic group (n=7). […] The nondiabetic and diabetic control groups are administered vehicle.
After the final dose (Day 8), all groups of animals are fasted for 4 hours and anesthetized with CO2, and blood is collected by cardiac puncture into EDTA tubes. The plasma is separated from the red blood cells by centrifugation. Plasma triglyceride levels are quantitated on an automated COBAS chemistry system utilizing the Roche reagent for Triglycerides (Cat #44119). This assay is a standard spectrophotometric enzyme assay that uses a Trinder reaction to measure the final product (Trinder, P., Ann Clin Biochem 6: […], 1969). […]

[2] = tested on: STZ treated diabetic minipigs; assay: Wound healing in STZ treated diabetic minipigs; assay type: in vivo, minipig; conditions: STZ diabetic minipigs with wounds, compared with untreated controls
Text: These animals are compared with control STZ diabetic minipigs also having wounds but that are not treated with the compound.

[3] = molecular target: human aldose reductase (hALR2) (Homo sapiens, UniProt P15121); assay: Inhibition of human aldose reductase (hALR2); assay type: biochemical
Experimental: Representative compounds of the invention were tested for their potency, selectivity and efficacy as inhibitors of human aldose reductase.

Text for rat aortic ring: Rats (less than 6 weeks old, approx 150 grams) are individually sacrificed via carbon dioxide asphyxiation. The abdomen and thorax are opened along the midline with scissors using known sterile techniques. The animals are placed recumbent on their right side, to allow displacement of the viscera. The abdominal and thoracic sections of the aorta are carefully separated from the dorsum by dissection along the longitudinal axis of the aorta. The isolated aorta is placed in a petri dish containing sterile, ice cold Hanks' balanced salt solution (Gibco BRL-Life Technologies, Rockville, Md.) for further micro-dissection under a dissecting microscope. The lumenal content of the aorta is dislodged by injection with Hanks, balanced salt solution via a syringe. Adherent adipose, loose connective tissue and segments of intercostal arteries are trimmed from the exterior of the aorta using sterile microsurgical instruments. The aorta is transferred to a clean petri dish containing fresh Hanks' balanced salt solution and the entire aorta is sectioned into 1 to 2 mm thick rings. The two end rings and any other rings which appear damaged are discarded. The aorta is maintained submerged in Hanks' balanced salt solution on ice while plating onto a 48-well plate.
Using a 48-well tissue culture plate, which is chilled on ice, in a tissue culture hood a 120 microliters of thawed Matrigel® (Becton Dickinson Labware, Bedford, Mass.) is plated onto each well using a sterile pipet tip. The Matrigel® is solidified by placing the culture plate for 30 minutes in a 37° C. humidified tissue culture incubator in the presence of 5% CO2. A single aortic ring is placed on edge, with one of its two cut surfaces resting on the Matrigel®, at the center of each well using a sterile curved forcep. The layout of the culture plate is such that the rings from multiple animals are placed in a single column on the plate. In this fashion, the experimental results represent observations based on six animals (n=6). […]

Question: How did the Blood glucose (diabetic (db/db) mice; 100 mg/kg/d in diet, Week 0, mean ± SD) turn out when Cc1c(Cc2nc3c(F)c(F)cc(F)c3s2)c2ccccc2n1CC(=O)O [Example 1, 2-methyl-3-(4,5,7-trifluorobenzothiazol-2-yl)methyl-indole-N-acetic acid] was run?
Answer: 323 ± 79 mg/dL

Question: And the Blood glucose (diabetic (db/db) mice; 100 mg/kg/d in diet, Week 2, mean ± SD)?
Answer: 284 ± 75 mg/dL

Question: What about the Blood glucose (diabetic (db/db) mice; 100 mg/kg/d in diet, Week 4, mean ± SD) of the same compound?
Answer: 303 ± 79 mg/dL

Question: And the “mean percent change in glucose (lowering)” value (diabetic (db/db) mice; 100 mg/kg/d)?
Answer: 12%

Question: And the Blood glucose (diabetic (db/db) mice; 300 mg/kg/d in diet, Week 0, mean ± SD)?
Answer: 313 ± 52 mg/dL

Question: What about the Blood glucose (diabetic (db/db) mice; 300 mg/kg/d in diet, Week 2, mean ± SD) of the same compound?
Answer: 240 ± 85 mg/dL

Question: What about the “mean percent change in glucose (lowering)” value (diabetic (db/db) mice; 300 mg/kg/d) of the same compound?
Answer: 40%

Question: And the “Linear Microvascular Growth” value (rat aortic ring; Intervention (Days 4-6), compound only on days 4-6, mean ± SD)?
Answer: 1.97 ± 0.66, n = 5 mm

Question: What about the “Linear Microvascular Growth” value (rat aortic ring; Prevention (Days 1-6), 50 micromolar, mean ± SD) of the same compound?
Answer: 1.46 ± 0.48, n = 6 mm

Question: What about the “Linear Microvascular Growth” value (rat aortic ring; Removal: 50 micromolar days 1-3, compound removed days 4-6, mean ± SD) of the same compound?
Answer: 2.31 ± 0.71, n = 5 mm

Question: And the “Triglyceride lowering compared to diabetic” value [1]?
Answer: 68%

Question: And the “degree of wound healing” value [2]?
Answer: significant increase in the degree of wound healing

Question: Which IC50 [3] does the source give for O=C(O)Cn1cc(Cc2nc3ccc(F)cc3s2)c2ccccc21 [Example 24, 3-[6-Fluorbenzothiazole-2-yl]methyl-indole-N-acetic Acid] here?
Answer: 1040 nM

From patent publication US20120065203A1, “Methods of Reducing Serum Glucose and Triglyceride Levels and for Inhibiting Angiogenesis Using Substituted Indolealkanoic Acids” (The Institute for Pharmaceutical Discovery, LLC, priority 1998, published 2012)
